From US12102608B2, “Composition of acylethanolamides from olive oil fatty acids” (EPITECH GROUP S.P.A., priority 2021, dated 2024)

Columns and labels:
Type in all cases: in vivo, rat
[1] = tested on: paw edema of animals injected with CAR; assay: Carrageenan-induced paw edema, plethysmometer; conditions: per os 30 min before CAR in 2% CMC; PEA 2 mg/kg, OEA 6 mg/kg, complex/silica 20 mg/kg; 1 h to 6 h after CAR; FIG. 1
Experimental: The study was conducted on male Sprague-Dawley rats (200-235 g; Harlan, Nossan, Italy) fed ad libitum and housed in cages with a controlled sleep/wake cycle. Before the start of the experimentation, the animals were subjected to an acclimatization period of 1 week considering all the experimental procedures and protocols, compliant with the principles of the care of laboratory animals approved by the Italian Ministry of Health and respecting the guidelines of the European Economic Community. The animals were subjected to a single injection of 100 μl of saline solution containing 1% Carrageenan (CAR) in one of the two hind legs. Paw edema was measured with a plethysmometer (Ugo Basile, Comerio, Varese, Italy) (Salvemini D et al. Nitric oxide: A key mediator in the early and late phase of carrageenan-induced rat paw inflammation. Br. J. Pharmacol. 1996; 118: 829-838) before the CAR injection and after the inoculation thereof every hour for 6 h. The hyperalgesic responses to heat were assessed using the plantar test with a cut-off latency of 20 sec to avoid tissue damage. […] The suspension latency period of the injected paw was determined by an electronic circuit and the results were expressed in seconds. Edema was expressed as increased paw volume (mL) after the CAR injection with respect to the pre-injection value for all the animals. […]

[2] = tested on: CAR-induced thermal hyperalgesia; assay: Plantar test, thermal hyperalgesia after CAR injection; conditions: per os 30 min before CAR in 2% CMC; PEA 2 mg/kg, OEA 6 mg/kg, complex/silica 20 mg/kg; 1 h to 6 h after CAR, vs. vehicle; FIG. 2
Experimental: The study was conducted on male Sprague-Dawley rats (200-235 g; Harlan, Nossan, Italy) fed ad libitum and housed in cages with a controlled sleep/wake cycle. Before the start of the experimentation, the animals were subjected to an acclimatization period of 1 week considering all the experimental procedures and protocols, compliant with the principles of the care of laboratory animals approved by the Italian Ministry of Health and respecting the guidelines of the European Economic Community. The animals were subjected to a single injection of 100 μl of saline solution containing 1% Carrageenan (CAR) in one of the two hind legs. Paw edema was measured with a plethysmometer (Ugo Basile, Comerio, Varese, Italy) (Salvemini D et al. Nitric oxide: A key mediator in the early and late phase of carrageenan-induced rat paw inflammation. Br. J. Pharmacol. 1996; 118: 829-838) before the CAR injection and after the inoculation thereof every hour for 6 h. The hyperalgesic responses to heat were assessed using the plantar test with a cut-off latency of 20 sec to avoid tissue damage. The rats were individually housed in plexiglass compartments to acclimatize them before subjecting them to thermal stimulation. The suspension latency period of the injected paw was determined by an electronic circuit and the results were expressed in seconds. […]

[3] = tested on: tissue damage of the paw of animals subjected to CAR injection; assay: Histology of paw tissue (Hematoxylin/Eosin), tissue damage score; conditions: per os 30 min before CAR; PEA 2 mg/kg, OEA 6 mg/kg, complex/silica 20 mg/kg; tissue taken 6 h after CAR; FIG. 3
Experimental: (§1) The study was conducted on male Sprague-Dawley rats (200-235 g; Harlan, Nossan, Italy) fed ad libitum and housed in cages with a controlled sleep/wake cycle. Before the start of the experimentation, the animals were subjected to an acclimatization period of 1 week considering all the experimental procedures and protocols, compliant with the principles of the care of laboratory animals approved by the Italian Ministry of Health and respecting the guidelines of the European Economic Community. […]

[4] = tested on: mast cells in the paw tissue; assay: Toluidine Blue staining of mast cells in paw tissue; conditions: per os 30 min before CAR; PEA 2 mg/kg, OEA 6 mg/kg, complex/silica 20 mg/kg; 6 h after CAR; PEA and OEA compared with sham; FIG. 4
Experimental: as §1

Compound	edema (increased paw volume) caused by CAR [1]	CAR-induced thermal hyperalgesia (plantar test latency) [2]	paw tissue damage (E/E histological score) [3]	number of mast cells / mast cell infiltrate in paw tissue [4]
CCCCCCCC/C=C\CCCCCCCC(=O)NCCO [OEA, oleoylethanolamide]	No significant reduction in the edema	No analgesic effect	not capable of protecting the paw tissues	significant increase in the number of mast cells
CCCCCCCCCCCCCCCC(=O)NCCO [PEA, palmitoylethanolamide]	No significant reduction in the edema	No analgesic effect	not capable of protecting the paw tissues	significant increase in the number of mast cells
